Experiments:
[1] = test system: BT474 (EGFR overexpression) cells; assay: Cell proliferation assay (MTS), BT474; assay type: cell-based; conditions: Homo sapiens, BT-474, 168 h, 7 d incubation
Procedure: (§1) Cell Proliferation Asssay
(§2) Materials and Preparation of Reagents
(§3) MTS testing kit was purchased from Promega. […] Dimethyl sulfoxide (DMSO) was purchased from Sigma.
(§4) Inhibition Activity of Cell Proliferation
(§5) In this assay, inhibition of EGFR and ErbB2 was detected by the inhibition of BT474 and N87 cells proliferation. BT474 cells were cultured in culture flasks to 40-80% confluence in DMEM plus 10% fetal bovine serum. […] Cells were collected and plated onto 96-well plates at desired cell density (BT474: 1000 cells/well; N87: 1000 cells/well). BT474 plates were incubated 48 h at 37° C., with 5% CO2 to adhere. N87 plates were incubated overnight at 37° C., with 5% CO2 to adhere. […] Place BT474 plates at 37° C., with 5% CO2 for 7d. Place N87 plates at 37° C., with 5% CO2 for 72 h. After removing the medium, 20 μl MTS/100 μl medium mixture solution were added to each well and incubate the plates for exactly 2 hours. Measure absorbance at 490 nm and 650 nm (reference wavelength). IC50 was calculated using GraphPad Prism 5.0.

[2] = test system: N87 (EGFR and ErbB2 overexpression) cells; assay: Cell proliferation assay (MTS), N87; assay type: cell-based; conditions: 72 h incubation
Procedure: as §1, §2, §3, §4, §5

NCI-N87 tumor cells = assay: N87 tumor in vivo study; design: species or system Female BALB/cA-nude mice; conditions: for Average Tumor Volume Day 21 / Inhibition rate / T/C: Day 21; for Average Tumor Volume Day 0: Day 0 (baseline)
Procedure: Female BALB/cA-nude mice were implanted with NCI-N87 tumor cells. Tumor measurements were recorded twice a week. Randomize animals to groups (Day 0) when tumors reached an average size of 60-150 mm^3. Group size was 6 mice. Test compound was administered p.o. once daily for 21 days. Tumor inhibition values were determined at Day 21.
Tumor volume (V) was calculated as follow: V=½×a×b, where a and b are the length and width of the tumor respectively. Relative tumor proliferation rate was calculated as follow: T/C (%)=(T−T0)/(C−C0)×100, where T and C are the tumor volume of test compound group and control group on Day 21, T0 and C0 are the tumor volume of test compound group and control group on Day 0.

[3] = 2 mg/kg p.o. once daily for 21 days
[4] = 5 mg/kg p.o. once daily for 21 days
[5] = 10 mg/kg p.o. once daily for 21 days
[6] = 320 mg/kg p.o. once daily for 21 days
[7] = 20 mg/kg p.o. once daily for 21 days

`O=C(/C=C/CN1CCC1CO)Nc1cc2c(Nc3ccc(F)c(Cl)c3)ncnc2cc1OCC1CC1` (centres unmarked) [Example 8, (E)-N-(4-(3-chloro-4-fluorophenylamino)-7-(cyclopropylmethoxy)quinazolin-6-yl)-4-(2-(hydroxymethyl)azetidin-1-yl)but-2-enamide] gave an IC50 [1] of 9.5 nM and an IC50 [2] of 11.8 nM.

Work on `COCCOc1cc2ncnc(Nc3ccc(F)c(Cl)c3)c2cc1NC(=O)/C=C/CN1CC[C@H]1COC` [Example 7, (S,E)-N-(4-(3-chloro-4-fluorophenylamino)-7-(2-methoxyethoxy)quinazolin-6-yl)-4-(2-(methoxymethyl)azetidin-1-yl)but-2-enamide] yielded an IC50 [1] of 5.8 nM.

In the case of `COC[C@@H]1CCN1C/C=C/C(=O)Nc1cc2c(Nc3ccc(F)c(Cl)c3)ncnc2cc1OCC1CC1` [Example 10, (S,E)-N-(4-(3-chloro-4-fluorophenylamino)-7-(cyclopropylmethoxy)quinazolin-6-yl)-4-(2-(methoxymethyl)azetidin-1-yl)but-2-enamide], the IC50 [1] is reported as 21.7 nM.

`COC[C@@H]1CCN1C/C=C/C(=O)Nc1cc2c(Nc3ccc(F)c(Cl)c3)ncnc2cc1OC[C@H]1COCCO1` [Example 15, (E)-N-(7-(((R)-1,4-dioxan-2-yl)methoxy)-4-(3-chloro-4-fluorophenylamino)quinazolin-6-yl)-4-((S)-2-(methoxymethyl)azetidin-1-yl)but-2-enamide] was tested, and the IC50 [1] was 25 nM.

With `O=C(/C=C/CN1CCC1CO)Nc1cc2c(Nc3ccc(F)c(Cl)c3)ncnc2cc1OC[C@H]1COCCO1` (stereo partly drawn) [Example 13, (E)-N-(7-(((R)-1,4-dioxan-2-yl)methoxy)-4-(3-chloro-4-fluorophenylamino)quinazolin-6-yl)-4-(2-(hydroxymethyl)azetidin-1-yl)but-2-enamide] the IC50 [1] was 2.7 nM and the IC50 [2] was 13.5 nM.

For `CCOc1cc2ncnc(Nc3ccc(F)c(Cl)c3)c2cc1NC(=O)/C=C/CN1CC[C@@H]1COC` [Example 4, (R,E)-N-(4-(3-chloro-4-fluorophenylamino)-7-ethoxyquinazolin-6-yl)-4-(2-(methoxymethyl)azetidin-1-yl)but-2-enamide], the IC50 [1] was 2 nM, the “Average Tumor Volume Day 21” value (NCI-N87 tumor cells; [3]) was 436.6 ± 60.5 mm^3 and the Inhibition rate (NCI-N87 tumor cells; [3]) was 73%. The T/C (NCI-N87 tumor cells; [3]) was 27%, the “Average Tumor Volume Day 0” value (NCI-N87 tumor cells; 2 mg/kg p.o. once daily) was 105.6 ± 9.9 mm^3 and the “Average Tumor Volume Day 21” value (NCI-N87 tumor cells; [4]) was 49.7 ± 5.4 mm^3. The Inhibition rate (NCI-N87 tumor cells; [4]) was 154%, the T/C (NCI-N87 tumor cells; [4]) was −54% and the “Average Tumor Volume Day 0” value (NCI-N87 tumor cells; 5 mg/kg p.o. once daily) was 109.1 ± 10.1 mm^3.

`O=C(/C=C/CN1CCC1CO)Nc1cc2c(Nc3ccc(F)c(Cl)c3)ncnc2cc1OC[C@@H]1COCCO1` (stereo partly drawn) [Example 16, (E)-N-(7-(((S)-1,4-dioxan-2-yl)methoxy)-4-(3-chloro-4-fluorophenylamino)quinazolin-6-yl)-4-(2-(hydroxymethyl)azetidin-1-yl)but-2-enamide] gave an IC50 [1] of 17.5 nM and an IC50 [2] of 39.5 nM.

In the case of `COCCOc1cc2ncnc(Nc3ccc(F)c(Cl)c3)c2cc1NC(=O)/C=C/CN1CC[C@@H]1COC` [Example 6, (R,E)-N-(4-(3-chloro-4-fluorophenylamino)-7-(2-methoxyethoxy)quinazolin-6-yl)-4-(2-(methoxymethyl)azetidin-1-yl)but-2-enamide], the IC50 [1] is reported as 1.4 nM, the “Average Tumor Volume Day 21” value (NCI-N87 tumor cells; [4]) is reported as 176.3 ± 24.2 mm^3 and the Inhibition rate (NCI-N87 tumor cells; [4]) is reported as 95%. The T/C (NCI-N87 tumor cells; [4]) was 5%, the “Average Tumor Volume Day 0” value (NCI-N87 tumor cells; 5 mg/kg p.o. once daily) was 116.9 ± 7.8 mm^3 and the “Average Tumor Volume Day 21” value (NCI-N87 tumor cells; [5]) was 49.0 ± 3.9 mm^3. For the same molecule, the Inhibition rate (NCI-N87 tumor cells; [5]) was 157%, the T/C (NCI-N87 tumor cells; [5]) was −57% and the “Average Tumor Volume Day 0” value (NCI-N87 tumor cells; 10 mg/kg p.o. once daily) was 114.8 ± 7.8 mm^3.

`COC[C@H]1CCN1C/C=C/C(=O)Nc1cc2c(Nc3ccc(F)c(Cl)c3)ncnc2cc1OC` [Example 2, (R,E)-N-(4-(3-chloro-4-fluorophenylamino)-7-methoxyquinazolin-6-yl)-4-(2-(methoxymethyl)azetidin-1-yl)but-2-enamide] was tested, and the IC50 [1] was 1.6 nM, the IC50 [2] was 1.6 nM and the “Average Tumor Volume Day 21” value (NCI-N87 tumor cells; [3]) was 584.4 ± 71.3 mm^3. For the same molecule, the Inhibition rate (NCI-N87 tumor cells; [3]) was 61%, the T/C (NCI-N87 tumor cells; [3]) was 39% and the “Average Tumor Volume Day 0” value (NCI-N87 tumor cells; 2 mg/kg p.o. once daily) was 113.3 ± 4.4 mm^3. The “Average Tumor Volume Day 21” value (NCI-N87 tumor cells; [4]) was 54.3 ± 3.8 mm^3, the Inhibition rate (NCI-N87 tumor cells; [4]) was 154% and the T/C (NCI-N87 tumor cells; [4]) was −54%. The “Average Tumor Volume Day 0” value (NCI-N87 tumor cells; 5 mg/kg p.o. once daily) was 117.6 ± 7.2 mm^3.

Molecule `COc1cc2ncnc(Nc3ccc(F)c(Cl)c3)c2cc1NC(=O)/C=C/CN1CCC1CO` (centres unmarked) [Example 1, (E)-N-(4-(3-chloro-4-fluorophenylamino)-7-methoxyquinazolin-6-yl)-4-(2-(hydroxymethyl)azetidin-1-yl)but-2-enamide] has an IC50 [1] of 2.3 nM and an IC50 [2] of 5 nM.

In the case of `O=C(/C=C/CN1CCC1CO)Nc1cc2c(Nc3ccc(F)c(Cl)c3)ncnc2cc1O[C@H]1CCOC1` (stereo partly drawn) [Example 11, (E)-N-(4-(3-chloro-4-fluorophenylamino)-7-((S)-tetrahydrofuran-3-yloxy)quinazolin-6-yl)-4-(2-(hydroxymethyl)azetidin-1-yl)but-2-enamide], the IC50 [1] is reported as 3.9 nM and the IC50 [2] is reported as 9.6 nM.

`O=C(/C=C/CN1CCC1CO)Nc1cc2c(Nc3ccc(F)c(Cl)c3)ncnc2cc1OC[C@H]1[C@@H]2COC[C@@H]21` (stereo partly drawn) [Example 18, (E)-N-(7-((1R,5S,6r)-3-oxabicyclo[3.1.0]hexan-6-ylmethoxy)-4-(3-chloro-4-fluorophenylamino)quinazolin-6-yl)-4-(2-(hydroxymethyl)azetidin-1-yl)but-2-enamide] gave an IC50 [1] of 10.8 nM and an IC50 [2] of 11.2 nM.

`COCC1CCN1C/C=C/C(=O)Nc1cc2c(Nc3ccc(F)c(Cl)c3)ncnc2cc1O[C@H]1CCOC1` (stereo partly drawn) [Example 12, (E)-N-(4-(3-chloro-4-fluorophenylamino)-7-((S)-tetrahydrofuran-3-yloxy)quinazolin-6-yl)-4-(2-(methoxymethyl)azetidin-1-yl)but-2-enamide] showed an IC50 [1] of 2.9 nM and an IC50 [2] of 1.5 nM.

`COC[C@H]1CCN1C/C=C/C(=O)Nc1cc2c(Nc3ccc(F)c(Cl)c3)ncnc2cc1OCC1CC1` [Example 9, (R,E)-N-(4-(3-chloro-4-fluorophenylamino)-7-(cyclopropylmethoxy)quinazolin-6-yl)-4-(2-(methoxymethyl)azetidin-1-yl)but-2-enamide] was tested, and the IC50 [1] was 6.6 nM, the “Average Tumor Volume Day 21” value (NCI-N87 tumor cells; [4]) was 349.3 ± 43.8 mm^3 and the Inhibition rate (NCI-N87 tumor cells; [4]) was 81%. The T/C (NCI-N87 tumor cells; [4]) was 19%, the “Average Tumor Volume Day 0” value (NCI-N87 tumor cells; 5 mg/kg p.o. once daily) was 124.1 ± 8.5 mm^3 and the “Average Tumor Volume Day 21” value (NCI-N87 tumor cells; [5]) was 60.3 ± 6.9 mm^3. The Inhibition rate (NCI-N87 tumor cells; [5]) was 150%, the T/C (NCI-N87 tumor cells; [5]) was −50% and the “Average Tumor Volume Day 0” value (NCI-N87 tumor cells; 10 mg/kg p.o. once daily) was 120.2 ± 13.0 mm^3.

`CS(=O)(=O)CCNCc1ccc(-c2ccc3ncnc(Nc4ccc(OCc5cccc(F)c5)c(Cl)c4)c3c2)o1` [Lapatinib, reference compound] was tested, and the Inhibition rate (NCI-N87 tumor cells; [6]) was 87%, the T/C (NCI-N87 tumor cells; [6]) was 13% and the “Average Tumor Volume Day 0” value (NCI-N87 tumor cells) was 124.4 ± 7.3 mm^3.

`COC[C@@H]1CCN1C/C=C/C(=O)Nc1cc2c(Nc3ccc(F)c(Cl)c3)ncnc2cc1OC[C@H]1[C@@H]2COC[C@@H]21` [Example 20, (E)-N-(7-((1R,5S,6r)-3-oxabicyclo[3.1.0]hexan-6-ylmethoxy)-4-(3-chloro-4-fluorophenylamino)quinazolin-6-yl)-4-((S)-2-(methoxymethyl)azetidin-1-yl)but-2-enamide] showed an IC50 [1] of 22.2 nM.

With `CN(C)C/C=C/C(=O)Nc1cc2c(Nc3ccc(F)c(Cl)c3)ncnc2cc1O[C@H]1CCOC1` [Afatinib, reference compound] the “Average Tumor Volume Day 21” value (NCI-N87 tumor cells; [7]) was 72.9 ± 7.9 mm^3, the Inhibition rate (NCI-N87 tumor cells; [7]) was 138% and the T/C (NCI-N87 tumor cells; [7]) was −38%. For the same molecule, the “Average Tumor Volume Day 0” value (NCI-N87 tumor cells; 20 mg/kg p.o. once daily) was 117.2 ± 8.3 mm^3.

`COC[C@@H]1CCN1C/C=C/C(=O)Nc1cc2c(Nc3ccc(F)c(Cl)c3)ncnc2cc1OC` [Example 3, (S,E)-N-(4-(3-chloro-4-fluorophenylamino)-7-methoxyquinazolin-6-yl)-4-(2-(methoxymethyl)azetidin-1-yl)but-2-enamide] was tested, and the IC50 [1] was 21.5 nM and the IC50 [2] was 14.2 nM.

With `COC[C@H]1CCN1C/C=C/C(=O)Nc1cc2c(Nc3ccc(F)c(Cl)c3)ncnc2cc1OC[C@H]1COCCO1` [Example 14, (E)-N-(7-(((R)-1,4-dioxan-2-yl)methoxy)-4-(3-chloro-4-fluorophenylamino)quinazolin-6-yl)-4-((R)-2-(methoxymethyl)azetidin-1-yl)but-2-enamide] the IC50 [1] was 2.9 nM.

— patent publication US9714235B2, “Quinazoline derivatives, compositions thereof, and use as pharmaceuticals” (Shanghai Fochon Pharmaceutical Co., Ltd., priority 2013, dated 2017)
